In brackets after ≈: the same amount, converted by molar mass. Activity calls are given as the source filed them. The rule behind the calls is not given here.
Tests used:
Staphylococcus aureus [1] = experiment: Antimicrobial activity against Staphylococcus aureus ATCC 29213 by broth microdilution susceptibility assay; assay type: functional
Escherichia coli [2] = experiment: Antimicrobial activity against Escherichia coli ATCC 25922 by broth microdilution susceptibility assay; assay type: functional
A498 = experiment: Cytotoxicity against human A498 cells after 48 hrs by sulforhodamine B assay; assay type: functional
Neisseria gonorrhoeae [3] = experiment: Antimicrobial activity against Neisseria gonorrhoeae ATCC 49226 by broth microdilution susceptibility assay; assay type: functional
Enterobacter cloacae [4] = experiment: Antimicrobial activity against Enterobacter cloacae ATCC 13047 assessed clear zone in inhibition per disk by CLSI disk diffusion susceptibility assay; assay type: functional
Micrococcus luteus [5] = experiment: Antimicrobial activity against Micrococcus luteus Presque Isle 456 assessed clear zone in inhibition per disk by CLSI disk diffusion susceptibility assay; assay type: functional
OVCAR-3 = experiment: Cytotoxicity against human OVCAR-3 cells after 48 hrs by sulforhodamine B assay; assay type: functional
Staphylococcus aureus [6] = experiment: Antimicrobial activity against Staphylococcus aureus ATCC 29213 assessed clear zone in inhibition per disk by CLSI disk diffusion susceptibility assay; assay type: functional
SK-MEL-5 = experiment: Cytotoxicity against human SK-MEL-5 cells after 48 hrs by sulforhodamine B assay; assay type: functional
Streptococcus pneumoniae [7] = experiment: Antimicrobial activity against Streptococcus pneumoniae ATCC 6303 assessed clear zone in inhibition per disk by CLSI disk diffusion susceptibility assay; assay type: functional
Candida albicans [8] = experiment: Antimicrobial activity against Candida albicans ATCC 90028 assessed clear zone in inhibition per disk by CLSI disk diffusion susceptibility assay; assay type: functional
Candida albicans [9] = experiment: Antifungal activity against Candida albicans ATCC 90028 after 48 hrs by broth microdilution susceptibility assay; assay type: functional; settings: ATCC 90028, 48 h
Enterococcus faecalis [10] = experiment: Antimicrobial activity against Enterococcus faecalis ATCC 29212 assessed clear zone in inhibition per disk by CLSI disk diffusion susceptibility assay; assay type: functional
DU-145 = experiment: Cytotoxicity against human DU145 cells after 48 hrs by sulforhodamine B assay; assay type: functional; settings: DU-145, 48 h
SF-295 = experiment: Cytotoxicity against human SF295 cells after 48 hrs by sulforhodamine B assay; assay type: functional
Enterobacter cloacae [11] = experiment: Antimicrobial activity against Enterobacter cloacae ATCC 13047 by broth microdilution susceptibility assay; assay type: functional
BXPC-3 = experiment: Cytotoxicity against human BxPC3 cells after 48 hrs by sulforhodamine B assay; assay type: functional; settings: BXPC-3, 48 h
[12] = Inhibition of tubulin polymerization
[13] = system: Stenotrophomonas maltophilia; experiment: Antimicrobial activity against Stenotrophomonas maltophilia ATCC 13637 assessed clear zone in inhibition per disk by CLSI disk diffusion susceptibility assay; assay type: functional
SF-268 = experiment: Cytotoxicity against human SF268 cells after 48 hrs by sulforhodamine B assay; assay type: functional
Neisseria gonorrhoeae [14] = experiment: Antimicrobial activity against Neisseria gonorrhoeae ATCC 49226 assessed clear zone of inhibition measured per disk by CLSI disk diffusion susceptibility assay; assay type: functional
Candida albicans [15] = experiment: Antifungal activity against Candida albicans ATCC 90028 after 24 hrs by broth microdilution susceptibility assay; assay type: functional; settings: ATCC 90028, 24 h
Enterococcus faecalis [16] = experiment: Antimicrobial activity against Enterococcus faecalis ATCC 29212 by broth microdilution susceptibility assay; assay type: functional
Micrococcus luteus [17] = experiment: Antimicrobial activity against Micrococcus luteus Presque Isle 456 by broth microdilution susceptibility assay; assay type: functional
Cryptococcus neoformans [18] = experiment: Antifungal activity against Cryptococcus neoformans ATCC 90112 after 48 hrs by broth microdilution susceptibility assay; assay type: functional; settings: ATCC 90112, 48 h
Cryptococcus neoformans [19] = experiment: Antifungal activity against Cryptococcus neoformans ATCC 90112 after 72 hrs by broth microdilution susceptibility assay; assay type: functional; settings: ATCC 90112, 72 h
Neisseria gonorrhoeae [20] = experiment: Antimicrobial activity against Neisseria gonorrhoeae ATCC 49226 after 24 hrs by broth microdilution susceptibility assay; assay type: functional; settings: ATCC 49226, 24 h
Escherichia coli [21] = experiment: Antimicrobial activity against Escherichia coli ATCC 25922 assessed clear zone in inhibition per disk by CLSI disk diffusion susceptibility assay; assay type: functional
KM-20L2 = experiment: Cytotoxicity against human KM20L2 cells after 48 hrs by sulforhodamine B assay; assay type: functional; settings: KM-20L2, 48 h
Streptococcus pneumoniae [22] = experiment: Antimicrobial activity against Streptococcus pneumoniae ATCC 6303 by broth microdilution susceptibility assay; assay type: functional
MCF7 = experiment: Cytotoxicity against human MCF7 cells after 48 hrs by sulforhodamine B assay; assay type: functional
P388 = experiment: Cytotoxicity against mouse P388 cells after 48 hrs by sulforhodamine B assay; assay type: functional; settings: P388, 48 h, read-out: ED50 (the source's name)
[23] = system: Stenotrophomonas maltophilia; experiment: Antimicrobial activity against Stenotrophomonas maltophilia ATCC 13637 by broth microdilution susceptibility assay; assay type: functional
Cryptococcus neoformans [24] = experiment: Antimicrobial activity against Cryptococcus neoformans ATCC 90112 assessed clear zone in inhibition per disk by CLSI disk diffusion susceptibility assay; assay type: functional
NCI-H460 = experiment: Cytotoxicity against human NCI-H460 cells after 48 hrs by sulforhodamine B assay; assay type: functional; settings: NCI-H460, 48 h
Streptococcus pneumoniae [25] = experiment: Antimicrobial activity against Streptococcus pneumoniae ATCC 6303 after 24 hrs by broth microdilution susceptibility assay; assay type: functional; settings: ATCC 6303, 24 h
Staphylococcus aureus [26] = experiment: Antimicrobial activity against Staphylococcus aureus ATCC 29213 after 24 hrs by broth microdilution susceptibility assay; assay type: functional; settings: ATCC 29213, 24 h

SMILES	MIC (Staphylococcus aureus [1]) [µg/mL]	MIC (Escherichia coli [2]) [µg/mL]	GI50 (A498)	MIC (Neisseria gonorrhoeae [3]) [µg/mL]	MIC (Enterobacter cloacae [4]) [µg]	MIC (Micrococcus luteus [5]) [µg]	MIC (Staphylococcus aureus [6]) [µg]	GI50 (SK-MEL-5)	MIC (Streptococcus pneumoniae [7]) [µg]	MIC (Candida albicans [8]) [µg]	MIC (Candida albicans [9]) [µg/mL]	MIC (Enterococcus faecalis [10]) [µg]	GI50 (DU-145) [µg/mL]	MIC (Enterobacter cloacae [11]) [µg/mL]	GI50 (BXPC-3) [µg/mL]	IC50 [12] [µM]	MIC [13] [µg]	MIC (Neisseria gonorrhoeae [14]) [µg]	MIC (Enterococcus faecalis [16]) [µg/mL]	MIC (Micrococcus luteus [17]) [µg/mL]	further results
O=[N+]([O-])/C=C/c1ccc(O)cc1	> 64	> 64	inactive	4 (≈ 24.2 µM)	25	>100	50	inactive	6.25	12.5	16 (≈ 96.9 µM)	6.25	1.5 (≈ 9.08 µM)	> 64	1.6 (≈ 9.69 µM)	10	6.25	<0.78	> 64	> 64	GI50 (OVCAR-3): inactive; GI50 (SF-295; SF-295, 48 h): 1.7 µg/mL (≈ 10.3 µM); GI50 (SF-268): inactive; MFC (Candida albicans [15]): 16 µg/mL (≈ 96.9 µM); MFC (Cryptococcus neoformans [18]): 8 µg/mL (≈ 48.4 µM); MIC (Cryptococcus neoformans [19]): 8 µg/mL (≈ 48.4 µM); MBC (Neisseria gonorrhoeae [20]): 4 µg/mL (≈ 24.2 µM); MIC (Escherichia coli [21]): 12.5 µg; GI50 (KM-20L2): 1.5 µg/mL (≈ 9.08 µM); MIC (Streptococcus pneumoniae [22]): 64 µg/mL (≈ 388 µM); GI50 (MCF7; MCF7, 48 h): 0.48 µg/mL (≈ 2.91 µM); EC50 (P388): 1.5 µg/mL (≈ 9.08 µM); MIC [23]: > 64 µg/mL; MIC (Cryptococcus neoformans [24]): 6.25 µg; GI50 (NCI-H460): 1.7 µg/mL (≈ 10.3 µM)
O=[N+]([O-])/C=C/c1ccccc1O	> 64	64 (≈ 388 µM)	inactive	2 (≈ 12.1 µM)	25	25	25	inactive	1.56	1.56	16 (≈ 96.9 µM)	50	1 (≈ 6.06 µM)	> 64	1.1 (≈ 6.66 µM)	4.4	12.5	<0.78	> 64	> 64	GI50 (OVCAR-3): inactive; MBC (Streptococcus pneumoniae [25]): > 64 µg/mL; GI50 (SF-295): inactive; GI50 (SF-268; SF-268, 48 h): 1.2 µg/mL (≈ 7.27 µM); MFC (Candida albicans [15]): 32 µg/mL (≈ 194 µM); MFC (Cryptococcus neoformans [18]): 32 µg/mL (≈ 194 µM); MIC (Cryptococcus neoformans [19]): 8 µg/mL (≈ 48.4 µM); MBC (Neisseria gonorrhoeae [20]): 2 µg/mL (≈ 12.1 µM); MIC (Escherichia coli [21]): 25 µg; GI50 (KM-20L2): 1.6 µg/mL (≈ 9.69 µM); MIC (Streptococcus pneumoniae [22]): 32 µg/mL (≈ 194 µM); GI50 (MCF7; MCF7, 48 h): 0.47 µg/mL (≈ 2.85 µM); EC50 (P388): 3.5 µg/mL (≈ 21.2 µM); MIC [23]: 32 µg/mL (≈ 194 µM); MIC (Cryptococcus neoformans [24]): 0.78 µg; GI50 (NCI-H460): 0.95 µg/mL (≈ 5.75 µM)
COc1cc(/C=C/[N+](=O)[O-])ccc1O	> 64	> 64	inactive	4 (≈ 20.5 µM)	>100	50	12.5	inactive	3.12	6.25	16 (≈ 82 µM)	25	0.38 (≈ 1.95 µM)	> 64	1.2 (≈ 6.15 µM)	9.3	50	0.78	> 64	> 64	GI50 (OVCAR-3; OVCAR-3, 48 h): 0.48 µg/mL (≈ 2.46 µM); GI50 (SF-295; SF-295, 48 h): 0.37 µg/mL (≈ 1.9 µM); GI50 (SF-268): inactive; MFC (Candida albicans [15]): 16 µg/mL (≈ 82 µM); MFC (Cryptococcus neoformans [18]): 16 µg/mL (≈ 82 µM); MIC (Cryptococcus neoformans [19]): 16 µg/mL (≈ 82 µM); MBC (Neisseria gonorrhoeae [20]): 4 µg/mL (≈ 20.5 µM); MIC (Escherichia coli [21]): 6.25 µg; GI50 (KM-20L2): 1.1 µg/mL (≈ 5.64 µM); MIC (Streptococcus pneumoniae [22]): > 64 µg/mL; GI50 (MCF7): inactive; EC50 (P388): 0.18 µg/mL (≈ 0.922 µM); MIC [23]: > 64 µg/mL; MIC (Cryptococcus neoformans [24]): 3.12 µg; GI50 (NCI-H460): 0.34 µg/mL (≈ 1.74 µM)
COc1cc(/C=C/[N+](=O)[O-])ccc1OCc1ccccc1	4 (≈ 14 µM)	> 64	inactive	1 (≈ 3.51 µM)	>100	>100	6.25	inactive	12.5	>100	> 64	>100	1.3 (≈ 4.56 µM)	> 64	1.7 (≈ 5.96 µM)	2.5	>100	<0.78	> 64	4 (≈ 14 µM)	GI50 (OVCAR-3): inactive; MBC (Staphylococcus aureus [26]): > 16 µg/mL; MBC (Streptococcus pneumoniae [25]): 32 µg/mL (≈ 112 µM); GI50 (SF-295): inactive; GI50 (SF-268; SF-268, 48 h): 0.94 µg/mL (≈ 3.29 µM); MFC (Cryptococcus neoformans [18]): 64 µg/mL (≈ 224 µM); MIC (Cryptococcus neoformans [19]): 32 µg/mL (≈ 112 µM); MBC (Neisseria gonorrhoeae [20]): 2 µg/mL (≈ 7.01 µM); MIC (Escherichia coli [21]): >100 µg; GI50 (KM-20L2): 1.5 µg/mL (≈ 5.26 µM); MIC (Streptococcus pneumoniae [22]): 16 µg/mL (≈ 56.1 µM); GI50 (MCF7; MCF7, 48 h): 0.96 µg/mL (≈ 3.36 µM); EC50 (P388): 16.6 µg/mL (≈ 58.2 µM); MIC [23]: > 64 µg/mL; MIC (Cryptococcus neoformans [24]): <0.78 µg; GI50 (NCI-H460): 1.3 µg/mL (≈ 4.56 µM)
